Reference: ChEMBL document CHEMBL1140134, “Structure-guided design of N-phenyl tertiary amines as transrepression-selective liver X receptor modulators with anti-inflammatory activity” (J Med Chem, 2008)

How the values were obtained:
THP-1 [1] = experiment: Antiinflammatory activity against human THP1 cells assessed as inhibition of LPS-stimulated IL6 production by ELISA relative to N-(4-(1,1,1,3,3,3-hexafluoro-2-hydroxypropan-2-yl)phenyl)-N-(2,2,2-trifluoroethyl)benzenesulfonamide; type: functional
THP-1 [2] = experiment: Antiinflammatory activity against human THP1 cells assessed as inhibition of LPS-stimulated IL6 production after 6 hrs by ELISA; type: functional, cell-based; conditions: THP-1, 6 h
[3] = molecular target: T1, Oxysterols receptor LXR-alpha (Homo sapiens, UniProt Q13133); experiment: Displacement of [N-methyl-3H]GW0438 from human biotinylated LXRalpha ligand binding domain
T1 sequence (Q13133 whole entry): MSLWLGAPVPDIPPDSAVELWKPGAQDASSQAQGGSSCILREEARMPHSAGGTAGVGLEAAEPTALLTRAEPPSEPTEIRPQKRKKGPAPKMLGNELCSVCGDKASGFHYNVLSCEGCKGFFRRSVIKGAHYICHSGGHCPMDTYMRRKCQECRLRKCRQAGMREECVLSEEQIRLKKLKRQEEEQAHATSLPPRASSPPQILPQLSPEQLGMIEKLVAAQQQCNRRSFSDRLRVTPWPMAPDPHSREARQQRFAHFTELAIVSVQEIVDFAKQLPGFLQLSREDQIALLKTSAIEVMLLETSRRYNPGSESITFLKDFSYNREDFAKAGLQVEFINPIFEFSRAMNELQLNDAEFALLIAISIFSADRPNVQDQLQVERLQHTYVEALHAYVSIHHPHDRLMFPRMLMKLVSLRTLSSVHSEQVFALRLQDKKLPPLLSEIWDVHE

Huh-7 = experiment: Lipogenic activity against human HuH7 cells assessed as triglyceride accumulation at 10 uM after 4 days relative to N-(4-(1,1,1,3,3,3-hexafluoro-2-hydroxypropan-2-yl)phenyl)-N-(2,2,2-trifluoroethyl)benzenesulfonamide; type: functional
[4] = Metabolic stability in human HuH7 cells at 1 uM after 24 hrs; type: ADME, cell-based, Huh-7; conditions: read-out: Stability
[5] = molecular target: T1, Oxysterols receptor LXR-alpha; experiment: Activation of LXRalpha by GAL4 reporter gene assay
[6] = molecular target: T2, Nuclear receptor subfamily 1 group I member 2 (Homo sapiens, UniProt O75469); experiment: Inhibition of human PXR
T2 sequence (O75469 whole entry): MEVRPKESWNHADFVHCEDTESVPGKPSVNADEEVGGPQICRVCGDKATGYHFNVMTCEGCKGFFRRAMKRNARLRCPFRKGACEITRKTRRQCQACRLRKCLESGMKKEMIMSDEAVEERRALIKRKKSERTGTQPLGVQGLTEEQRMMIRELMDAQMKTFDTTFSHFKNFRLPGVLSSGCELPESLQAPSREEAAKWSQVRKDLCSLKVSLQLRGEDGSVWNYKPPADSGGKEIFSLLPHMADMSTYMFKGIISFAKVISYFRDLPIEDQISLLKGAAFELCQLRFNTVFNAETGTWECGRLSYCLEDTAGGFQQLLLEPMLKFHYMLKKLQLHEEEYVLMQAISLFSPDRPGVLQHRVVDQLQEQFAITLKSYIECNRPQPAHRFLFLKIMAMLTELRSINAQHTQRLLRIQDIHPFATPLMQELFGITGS

[7] = molecular target: Oxysterols receptor LXR-beta (Homo sapiens, UniProt P55055)
Chain of Oxysterols receptor LXR-beta (P55055 whole entry): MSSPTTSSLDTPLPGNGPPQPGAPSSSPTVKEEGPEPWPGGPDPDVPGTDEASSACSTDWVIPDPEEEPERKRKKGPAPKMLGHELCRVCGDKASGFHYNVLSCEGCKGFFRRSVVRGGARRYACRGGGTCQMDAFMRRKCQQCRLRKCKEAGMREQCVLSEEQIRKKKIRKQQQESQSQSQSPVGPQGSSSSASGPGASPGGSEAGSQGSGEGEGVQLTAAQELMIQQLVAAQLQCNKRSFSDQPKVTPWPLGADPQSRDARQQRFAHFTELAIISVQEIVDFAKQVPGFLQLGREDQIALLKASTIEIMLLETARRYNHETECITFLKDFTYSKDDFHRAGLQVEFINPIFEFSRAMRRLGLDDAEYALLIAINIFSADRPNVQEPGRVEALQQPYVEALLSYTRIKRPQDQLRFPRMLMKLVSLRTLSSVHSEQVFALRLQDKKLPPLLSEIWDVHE

Row | SMILES | IC50 (THP-1 [2]) [nM] | IC50 [3] [nM] | remaining at 24 h, 1 µM [4] [%] | EC50 [5] [nM] | EC50 [6] [nM] | IC50 [7] [nM] | Activity (THP-1 [1]) | Activity (Huh-7)
1 | CCCCN(Cc1cc(Cl)ccc1O)c1ccc(C(O)(C(F)(F)F)C(F)(F)F)cc1 | 55 | 220 | – | – | – | – | 1 | 1
2 | O=S(=O)(c1ccccc1)N(CC(F)(F)F)c1ccc(C(O)(C(F)(F)F)C(F)(F)F)cc1 [T091317] | 100 | – | 65 | – | – | – | 1 | 1
3 | CCCCN(Cc1cc(Cl)c(OC)c(Cl)c1)c1ccc(C(O)(C(F)(F)F)C(F)(F)F)cc1 | 15 | 170 | – | – | – | – | 1 | 0.8
4 | CCCCN(Cc1ccncc1)c1ccc(C(O)(C(F)(F)F)C(F)(F)F)cc1 | 20 | 90 | – | – | – | – | 1 | 1.1
5 | CCCCN(Cc1cc(Cl)cc(Cl)c1)c1ccc(C(O)(C(F)(F)F)C(F)(F)F)cc1 | 10 | 195 | – | – | – | – | 1 | 0.7
6 | CCCCN(Cc1ccc(O)cc1)c1ccc(C(O)(C(F)(F)F)C(F)(F)F)cc1 | – | 955 | – | – | – | – | – | –
7 | CCCCN(Cc1cccc(F)c1O)c1ccc(C(O)(C(F)(F)F)C(F)(F)F)cc1 | 60 | 615 | – | – | – | – | 1 | 1.9
8 | CCCCN(Cc1cc(OC(F)(F)F)ccc1O)c1ccc(C(O)(C(F)(F)F)C(F)(F)F)cc1 | – | 190 | – | – | – | – | – | 1
9 | CCCCN(Cc1cc(Cl)c(OC)c(OC)c1)c1ccc(C(O)(C(F)(F)F)C(F)(F)F)cc1 | 15 | 165 | – | – | – | – | 1 | 0.4
10 | CCCCN(Cc1cc(Cl)c(O)c(OC)c1)c1ccc(C(O)(C(F)(F)F)C(F)(F)F)cc1 | 10 | 775 | – | – | – | – | 1 | <0.2
11 | CCCCN(Cc1ccccn1)c1ccc(C(O)(C(F)(F)F)C(F)(F)F)cc1 | 20 | 120 | – | – | – | – | 1 | 1.1
12 | CCCCN(Cc1ccc(O)c(Cl)c1)c1ccc(C(O)(C(F)(F)F)C(F)(F)F)cc1 | 25 | 560 | – | – | – | – | 1 | 0.6

Continued by falling IC50 [3], values first:

Row | IC50 (THP-1 [2]) [nM] | IC50 [3] [nM] | remaining at 24 h, 1 µM [4] [%] | EC50 [5] [nM] | EC50 [6] [nM] | IC50 [7] [nM] | SMILES | Activity (THP-1 [1]) | Activity (Huh-7)
13 | 1290 | 890 | – | – | – | – | CCCCN(Cc1cc(Cl)cc(Cl)c1O)c1ccc(C(O)(C(F)(F)F)C(F)(F)F)cc1 | <0.5 | –
14 | – | 315 | – | – | – | – | OC(c1ccc(N(Cc2ccccc2)Cc2ccccc2)cc1)(C(F)(F)F)C(F)(F)F | – | >0.5
15 | – | 310 | – | – | – | – | CN(Cc1ccccc1)c1ccc(C(O)(C(F)(F)F)C(F)(F)F)cc1 | – | >0.5
16 | 20 | 235 | – | – | – | 30 | O=C(O)Cc1cccc(OCCCN(Cc2cccc(C(F)(F)F)c2Cl)CC(c2ccccc2)c2ccccc2)c1 | 1 | 1
17 | 15 | 180 | 40 | 3000 | 250 | – | CCCCN(Cc1cc(Cl)c(O)c(Cl)c1)c1ccc(C(O)(C(F)(F)F)C(F)(F)F)cc1 | 1 | <0.1
18 | 35 | 180 | – | – | – | – | CCCCN(Cc1ccccc1O)c1ccc(C(O)(C(F)(F)F)C(F)(F)F)cc1 | 1 | 0.6
19 | 25 | 170 | – | – | – | – | CCCCN(Cc1ccccc1)c1ccc(C(O)(C(F)(F)F)C(F)(F)F)cc1 | 1 | 0.8
20 | 35 | 160 | – | – | – | – | CCCCN(Cc1cccc(O)c1)c1ccc(C(O)(C(F)(F)F)C(F)(F)F)cc1 | 1 | 0.5
21 | 5 | 115 | – | – | – | – | CCCCN(Cc1cccc(OCCO)c1)c1ccc(C(O)(C(F)(F)F)C(F)(F)F)cc1 | 1 | 1.8
